Reference: publication PMC9516332 (Frontiers in Oncology, 2022)

Assays:
Experiment in all cases: Kinase panel profiling at 1 µmol/L (MSA or IMAP), percentage inhibition
Type in all cases: biochemical
[1] = molecular target: T1, panel of 255 wild-type kinases (Homo sapiens, UniProt Q8IW41); settings: MAPKAPK5; 1 µmol/L single concentration; read-out: %-inhibition, MAPKAPK5
T1 sequence (Q8IW41 1-473): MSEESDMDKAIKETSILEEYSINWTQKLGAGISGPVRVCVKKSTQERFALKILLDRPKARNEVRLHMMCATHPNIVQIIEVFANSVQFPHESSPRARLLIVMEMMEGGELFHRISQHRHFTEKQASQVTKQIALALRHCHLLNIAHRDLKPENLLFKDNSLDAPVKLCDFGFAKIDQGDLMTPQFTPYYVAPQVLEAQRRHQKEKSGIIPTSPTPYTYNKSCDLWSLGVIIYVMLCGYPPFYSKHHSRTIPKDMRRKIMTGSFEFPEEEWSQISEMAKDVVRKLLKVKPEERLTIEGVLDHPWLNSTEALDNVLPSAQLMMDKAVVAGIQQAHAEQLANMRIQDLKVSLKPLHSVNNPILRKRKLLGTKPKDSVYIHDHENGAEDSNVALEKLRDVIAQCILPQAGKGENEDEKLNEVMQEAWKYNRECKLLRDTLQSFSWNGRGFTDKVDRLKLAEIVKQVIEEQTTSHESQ

[2] = molecular target: panel of 255 wild-type kinases (Homo sapiens, UniProt Q13131); settings: AMPKα1/β1/γ1 kinase assay; 1 µmol/L single concentration; read-out: %-inhibition AMPKα1/β1/γ1
[3] = molecular target: panel of 255 wild-type kinases (Homo sapiens, UniProt P45984); settings: kinase JNK2; 1 µmol/L single concentration; read-out: %-inhibition at 1 µmol/L, JNK2
[4] = molecular target: panel of 255 wild-type kinases (Homo sapiens, UniProt Q9H422); settings: kinase HIPK3; 1 µmol/L single concentration; read-out: %-inhibition at 1 µmol/L, HIPK3
[5] = molecular target: panel of 255 wild-type kinases (Homo sapiens, UniProt Q9UPE1); settings: MSSK1; 1 µmol/L single concentration; read-out: %-inhibition, MSSK1
[6] = molecular target: T2, panel of 255 wild-type kinases (Homo sapiens, UniProt P54762); settings: kinase EPHB1; 1 µmol/L single concentration; read-out: %-inhibition at 1 µmol/L, EPHB1
T2 sequence (P54762 18-984): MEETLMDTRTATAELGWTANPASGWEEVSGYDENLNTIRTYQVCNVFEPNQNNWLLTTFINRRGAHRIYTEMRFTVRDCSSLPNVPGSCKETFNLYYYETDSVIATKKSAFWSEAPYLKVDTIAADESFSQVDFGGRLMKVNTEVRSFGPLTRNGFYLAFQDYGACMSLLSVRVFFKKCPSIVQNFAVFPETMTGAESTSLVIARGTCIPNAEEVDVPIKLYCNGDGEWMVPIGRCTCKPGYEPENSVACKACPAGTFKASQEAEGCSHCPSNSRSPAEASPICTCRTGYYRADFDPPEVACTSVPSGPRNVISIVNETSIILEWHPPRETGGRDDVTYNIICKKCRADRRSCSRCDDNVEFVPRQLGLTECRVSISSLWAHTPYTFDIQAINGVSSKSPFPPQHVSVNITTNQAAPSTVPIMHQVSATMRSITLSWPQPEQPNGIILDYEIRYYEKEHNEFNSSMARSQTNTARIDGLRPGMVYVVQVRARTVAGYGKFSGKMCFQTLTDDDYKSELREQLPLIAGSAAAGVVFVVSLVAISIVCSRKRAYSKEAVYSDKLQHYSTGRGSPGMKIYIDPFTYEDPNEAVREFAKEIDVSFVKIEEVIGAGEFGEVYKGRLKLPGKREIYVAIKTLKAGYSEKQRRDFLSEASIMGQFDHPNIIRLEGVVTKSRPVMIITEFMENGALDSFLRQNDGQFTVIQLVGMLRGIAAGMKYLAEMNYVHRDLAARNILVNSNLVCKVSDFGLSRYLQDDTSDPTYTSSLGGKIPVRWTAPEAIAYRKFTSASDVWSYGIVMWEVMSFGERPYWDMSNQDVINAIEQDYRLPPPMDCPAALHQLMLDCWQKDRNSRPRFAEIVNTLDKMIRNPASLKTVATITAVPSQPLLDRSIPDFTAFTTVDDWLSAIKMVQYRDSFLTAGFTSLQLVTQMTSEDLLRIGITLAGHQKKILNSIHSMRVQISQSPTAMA

[7] = molecular target: T3, panel of 255 wild-type kinases (Homo sapiens, UniProt Q96BR1); settings: kinase SGK3; 1 µmol/L single concentration; read-out: %-inhibition at 1 µmol/L, SGK3
T3 sequence (Q96BR1 1-496): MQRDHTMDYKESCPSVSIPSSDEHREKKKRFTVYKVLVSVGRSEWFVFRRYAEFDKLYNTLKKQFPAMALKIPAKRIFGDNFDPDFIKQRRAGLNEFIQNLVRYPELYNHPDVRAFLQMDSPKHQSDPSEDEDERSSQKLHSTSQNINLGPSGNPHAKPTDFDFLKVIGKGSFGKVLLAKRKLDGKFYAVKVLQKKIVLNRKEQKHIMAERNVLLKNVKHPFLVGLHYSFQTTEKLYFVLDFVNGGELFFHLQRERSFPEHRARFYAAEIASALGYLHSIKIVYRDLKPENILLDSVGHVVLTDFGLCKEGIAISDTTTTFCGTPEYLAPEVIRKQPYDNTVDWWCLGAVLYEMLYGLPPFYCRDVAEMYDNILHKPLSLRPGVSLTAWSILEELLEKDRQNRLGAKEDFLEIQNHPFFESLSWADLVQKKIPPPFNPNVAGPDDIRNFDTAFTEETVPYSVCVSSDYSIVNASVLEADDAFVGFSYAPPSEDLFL

Compound | inhibition at 1 µM [1] | inhibition at 1 µM [2] | inhibition at 1 µM [3] | inhibition at 1 µM [4] | inhibition at 1 µM [5] | inhibition at 1 µM [6] | inhibition at 1 µM [7]
Cc1cc(Nc2ncnc3ccc(NC4=NC(C)(C)CO4)cc23)ccc1Oc1ccn2ncnc2c1 [tucatinib] | 2% | -4% | 1.47% | 2.27% | 1.14% | 0.25% | -4%
C=CC(=O)N1CCC([C@@H]2CCNc3c(C(N)=O)c(-c4ccc(Oc5ccccc5)cc4)nn32)CC1 [zanubrutinib] | -3.6% | -5.51% | -1.18% | -2.42% | -2.31% | -2% | -3.7%
